# Assay results: paper PMC6366416, “Synthesis and in vitro anticancer activity of certain novel 1-(2-methyl-6-arylpyridin-3-yl)-3-phenylureas as apoptosis-inducing agents” (Journal of Enzyme Inhibition and Medicinal Chemistry, 2019)
# How the values were obtained:
# Test in all cases: NCI one-dose SRB growth inhibition
# Type in all cases: cell-based
# A498 = conditions: Homo sapiens, Renal Cancer, 48 h, read-out: GI% A498
# Outline: (§1)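 NCI DTP screen; 48 h drug exposure; SRB read-out of cell growth/viability; nine-tumour-type panel.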
# A549/ATCC = conditions: Homo sapiens, A549, 48 h, Non-Small Cell Lung Cancer, read-out: GI% A549/ATCC
# Outline: as §1
# BT-549 = conditions: Homo sapiens, Breast Cancer, 48 h, read-out: GI% BT-549
# Outline: as §1
# CCRF-CEM = conditions: Homo sapiens, Leukemia, 48 h, read-out: GI% CCRF-CEM
# Outline: as §1
# COLO 205 = conditions: Homo sapiens, Colon Cancer, 48 h, read-out: GI% COLO 205
# Outline: as §1
# DU-145 = conditions: Homo sapiens, Prostate, 48 h, read-out: GI% DU-145
# Outline: as §1
# HOP-92 = conditions: Homo sapiens, Non-Small Cell Lung Cancer, 48 h, read-out: GI% HOP-92
# Outline: as §1
# IGROV1 = conditions: Homo sapiens, IGROV-1, Ovarian Cancer, 48 h, read-out: GI% IGROV1
# Outline: as §1
# KM12 = conditions: Homo sapiens, Colon Cancer, 48 h, read-out: GI% KM12
# Outline: as §1
# LOX IMVI = conditions: Homo sapiens, Melanoma, 48 h, read-out: GI% LOX IMVI
# Outline: as §1
# MDA-MB-435 = conditions: Homo sapiens, Melanoma, 48 h, read-out: GI% MDA-MB-435
# Outline: as §1
# MOLT-4 = conditions: Homo sapiens, Leukemia, 48 h, read-out: GI% MOLT-4
# Outline: as §1
# NCI-H226 = conditions: Homo sapiens, Non-Small Cell Lung Cancer, 48 h, read-out: GI% NCI-H226
# Outline: as §1
# NCI-H460 = conditions: Homo sapiens, Non-Small Cell Lung Cancer, 48 h, read-out: GI% NCI-H460
# Outline: as §1
# NCI-H522 = conditions: Homo sapiens, NCI-H522, 48 h, Non-Small Cell Lung Cancer, read-out: GI% NCI-H522
# Outline: as §1
# NCI/ADR-RES = conditions: Homo sapiens, Ovarian Cancer, 48 h, read-out: GI% NCI/ADR-RES
# Outline: as §1
# OVCAR-5 = conditions: Homo sapiens, Ovarian Cancer, 48 h, read-out: GI% OVCAR-5
# Outline: as §1
# OVCAR-8 = conditions: Homo sapiens, Ovarian Cancer, 48 h, read-out: GI% OVCAR-8
# Outline: as §1
# PC-3 = conditions: Homo sapiens, PC-3, 48 h, Prostate, read-out: GI% PC-3
# Outline: as §1
# RPMI-8226 = conditions: Homo sapiens, RPMI-8226, 48 h, Leukemia, read-out: GI% RPMI-8226
# Outline: as §1
# RXF 393 = conditions: Homo sapiens, Renal Cancer, 48 h, read-out: GI% RXF 393
# Outline: as §1
# SF-539 = conditions: Homo sapiens, CNS Cancer, 48 h, read-out: GI% SF-539
# Outline: as §1
# SK-MEL-2 = conditions: Homo sapiens, Melanoma, 48 h, read-out: GI% SK-MEL-2
# Outline: as §1
# SK-MEL-5 = conditions: Homo sapiens, Melanoma, 48 h, read-out: GI% SK-MEL-5
# Outline: as §1
# SK-OV-3 = conditions: Homo sapiens, Ovarian Cancer, 48 h, read-out: GI% SK-OV-3
# Outline: as §1
# SN12C = conditions: Homo sapiens, Renal Cancer, 48 h, read-out: GI% SN12C
# Outline: as §1
# SNB-75 = conditions: Homo sapiens, CNS Cancer, 48 h, read-out: GI% SNB-75
# Outline: as §1
# SR = conditions: Homo sapiens, 48 h, Leukemia, read-out: GI% SR
# Outline: as §1
# SW-620 = conditions: Homo sapiens, Colon Cancer, 48 h, read-out: GI% SW-620
# Outline: as §1
# T-47D = conditions: Homo sapiens, T47D, 48 h, Breast Cancer, read-out: GI% T-47D
# Outline: as §1
# UACC-257 = conditions: Homo sapiens, UACC-257, read-out: GI% UACC-257, Melanoma, 48 h
# Outline: as §1
# UACC-62 = conditions: Homo sapiens, UACC-62, 48 h, Melanoma, read-out: GI% UACC-62
# Outline: as §1
# UO-31 = conditions: Homo sapiens, Renal Cancer, 48 h, read-out: GI% UO-31
# Outline: as §1
SMILES,inhibition at 10 µM (A498),inhibition at 10 µM (A549/ATCC),inhibition at 10 µM (BT-549),inhibition at 10 µM (CCRF-CEM),inhibition at 10 µM (COLO 205),inhibition at 10 µM (DU-145),inhibition at 10 µM (HOP-92),inhibition at 10 µM (IGROV1),inhibition at 10 µM (KM12),inhibition at 10 µM (LOX IMVI),inhibition at 10 µM (MDA-MB-435),inhibition at 10 µM (MOLT-4),inhibition at 10 µM (NCI-H226),inhibition at 10 µM (NCI-H460),inhibition at 10 µM (NCI-H522),inhibition at 10 µM (NCI/ADR-RES),inhibition at 10 µM (OVCAR-5),inhibition at 10 µM (OVCAR-8),inhibition at 10 µM (PC-3),inhibition at 10 µM (RPMI-8226),other results
"Cc1nc(-c2cccs2)ccc1NC(=O)Nc1ccc(F)cc1 [Compound 5h, 1-(4-Fluorophenyl)-3-(2-methyl-6-(thiophen-2-yl)pyridin-3-yl)urea]",< 10%,32%,< 10%,10%,< 10%,< 10%,< 10%,< 10%,18%,< 10%,< 10%,29%,< 10%,< 10%,39%,< 10%,< 10%,< 10%,19%,24%,inhibition at 10 µM (RXF 393): < 10%; inhibition at 10 µM (SF-539): < 10%; inhibition at 10 µM (SK-MEL-2): 24%; inhibition at 10 µM (SK-MEL-5): 12%; inhibition at 10 µM (SK-OV-3): < 10%; inhibition at 10 µM (SN12C): < 10%; inhibition at 10 µM (SNB-75): < 10%; inhibition at 10 µM (SR): 18%; inhibition at 10 µM (SW-620): < 10%; inhibition at 10 µM (T-47D): 15%; inhibition at 10 µM (UACC-257): 20%; inhibition at 10 µM (UACC-62): 18%; inhibition at 10 µM (UO-31): 13%
"Cc1nc(-c2ccc(Cl)cc2)ccc1NC(=O)Nc1ccc2c(c1)OCO2 [Compound 5g, 1-(Benzo[d][1,3]dioxol-5-yl)-3-(6-(4-chlorophenyl)-2-methylpyridin-3-yl)urea]",< 10%,32%,< 10%,< 10%,< 10%,< 10%,< 10%,< 10%,< 10%,34%,< 10%,18%,< 10%,< 10%,38%,< 10%,< 10%,< 10%,< 10%,< 10%,inhibition at 10 µM (RXF 393): < 10%; inhibition at 10 µM (SF-539): < 10%; inhibition at 10 µM (SK-MEL-2): < 10%; inhibition at 10 µM (SK-MEL-5): 17%; inhibition at 10 µM (SK-OV-3): < 10%; inhibition at 10 µM (SN12C): < 10%; inhibition at 10 µM (SNB-75): < 10%; inhibition at 10 µM (SR): 22%; inhibition at 10 µM (SW-620): < 10%; inhibition at 10 µM (T-47D): < 10%; inhibition at 10 µM (UACC-257): 25%; inhibition at 10 µM (UACC-62): 27%; inhibition at 10 µM (UO-31): < 10%
"Cc1nc(-c2ccc(Cl)cc2)ccc1NC(=O)Nc1cccc(C(F)(F)F)c1 [Compound 5e, 1-(6-(4-Chlorophenyl)-2-methylpyridin-3-yl)-3-(3-(trifluoromethyl)phenyl)urea]",< 10%,10%,< 10%,22%,< 10%,< 10%,< 10%,< 10%,< 10%,< 10%,< 10%,12%,< 10%,34%,48%,< 10%,< 10%,< 10%,20%,15%,inhibition at 10 µM (RXF 393): < 10%; inhibition at 10 µM (SF-539): < 10%; inhibition at 10 µM (SK-MEL-2): < 10%; inhibition at 10 µM (SK-MEL-5): < 10%; inhibition at 10 µM (SK-OV-3): < 10%; inhibition at 10 µM (SN12C): < 10%; inhibition at 10 µM (SNB-75): < 10%; inhibition at 10 µM (SR): 41%; inhibition at 10 µM (SW-620): 11%; inhibition at 10 µM (T-47D): 13%; inhibition at 10 µM (UACC-257): < 10%; inhibition at 10 µM (UACC-62): < 10%; inhibition at 10 µM (UO-31): < 10%
